Columns and labels:
mMB-SLCs = experiment: Western Blot of H3K27me3, PCNA, cleaved caspase 3 in mMB-SLCs; assay type: cell-based, mouse; conditions: 48 h
Method: Afterwards, we tested the ability of MC3629 (at 0.5, 5, and 25 μM) to inhibit the EZH2 enzymatic activity on a cell-based assay in vitro. The lower significant MC3629 dosage to decrease the H3K27me3 level in MB-SLCs was 5 μM (Figure 2C).
(§1) To evaluate cell viability cells were plated at a density of 5×10^3 cells/well in 96-well plates and were incubated with MTS solution (CellTiter 96® AQueous One Solution Promega).
Western blots were performed according to standard procedures. Briefly, protein lysates were prepared using RIPA buffer with fresh protease inhibitors. Lysates were separated on SDS polyacrylamide gels. Proteins were transferred on nitrocellulose membrane (0.45 micron) (PerkinElmer). Membranes were blocked for 1 h at room temperature in 5% nonfat dry milk and incubated overnight at 4°C with antibodies against EZH2 (4905S Cell signaling), H3K27me3 (07-449 Millipore), PCNA (2586 Cell signaling), ACTIN (I-19 sc-1616; Santa Cruz Biotechnology), GAPDH (ab9484, Abcam), cleaved CSP-3 (D-175 9661S; Cell Signaling) and H3 (ab1971, Abcam). HRP-conjugated secondary antibodies (Santa Cruz Biotechnology) were used in combination with enhanced chemiluminescence (ECL Amersham).

DOT1L = DOT1L (Homo sapiens, UniProt Q8TEK3); experiment: Methyltransferase panel: DOT1L; assay type: biochemical; conditions: substrate nucleosomes
Method: (§2) MC3629 was tested in the cell free enzymatic assay (EZH2/PRC2) in 10-dose IC50 mode with 2-fold serial dilution starting from 400 μM solution, using various histone substrates (histone H3/H4 octamer, histone H3/H4 tetramer, histone H3, and core histone) and SAM as the co-substrate. […] (Figure 2B, and Supplementary Figure 2).
(§3) The appropriate methyltransferase (MT) substrate (0.05 mg/ml core histone for EZH1 complex, 0.05 mg/ml oligonucleosomes for DOT1L, 5 μM histone H3 (1-21) peptide for G9a, 0.05 mg/ml nucleosomes for MLL1 complex, 0.05 mg/ml core histone for SET7/9, 5 μM histone H4 for PRMT1, and 0.001 mg/ml poly(dI-dC) for DNMT1) was added in freshly prepared Reaction Buffer (50 mM Tris-HCl (pH 8.5), 5 mM MgCl2, 50 mM NaCl, 0.01% Brij35, 1 mM DTT, 1% DMSO). The MT enzyme was delivered into the substrate solution and the mixture was mixed gently. Afterwards, the tested compound dissolved in DMSO was delivered into the enzyme/substrate reaction mixture by using Acoustic Technology (Echo 550, LabCyte Inc. Sunnyvale, CA) in nanoliter range, and 1 μM ^3H-SAM was also added into the reaction mixture to initiate the reaction. The reaction mixture was incubated for 1 h at 30°C and then it was delivered to filter-paper for detection. The data were analyzed using Excel and GraphPad Prism software for IC50 curve fits (for EZH1 complex).

[1] = tested on: H3K27me3 in cerebellum and brain; experiment: H3K27me3 levels in cerebellum and brain of wild type mice after i.p. treatment; assay type: in vivo, mouse
Method: CD1 wild-type mice were treated intra-peritoneally with 20 μMoles/Kg of MC3629 (n=8 for each group). Treatment was performed at the age of 8 and 10 days post natal and mice were sacrificed at 12 days post natal. Brain and cerebellum tissues were collected for analysis.

G9a = target: T1, G9a (Homo sapiens, UniProt Q96KQ7); experiment: Methyltransferase panel: G9a; assay type: biochemical; conditions: substrate histone H3 1-21
T1 sequence (Q96KQ7 1-1210): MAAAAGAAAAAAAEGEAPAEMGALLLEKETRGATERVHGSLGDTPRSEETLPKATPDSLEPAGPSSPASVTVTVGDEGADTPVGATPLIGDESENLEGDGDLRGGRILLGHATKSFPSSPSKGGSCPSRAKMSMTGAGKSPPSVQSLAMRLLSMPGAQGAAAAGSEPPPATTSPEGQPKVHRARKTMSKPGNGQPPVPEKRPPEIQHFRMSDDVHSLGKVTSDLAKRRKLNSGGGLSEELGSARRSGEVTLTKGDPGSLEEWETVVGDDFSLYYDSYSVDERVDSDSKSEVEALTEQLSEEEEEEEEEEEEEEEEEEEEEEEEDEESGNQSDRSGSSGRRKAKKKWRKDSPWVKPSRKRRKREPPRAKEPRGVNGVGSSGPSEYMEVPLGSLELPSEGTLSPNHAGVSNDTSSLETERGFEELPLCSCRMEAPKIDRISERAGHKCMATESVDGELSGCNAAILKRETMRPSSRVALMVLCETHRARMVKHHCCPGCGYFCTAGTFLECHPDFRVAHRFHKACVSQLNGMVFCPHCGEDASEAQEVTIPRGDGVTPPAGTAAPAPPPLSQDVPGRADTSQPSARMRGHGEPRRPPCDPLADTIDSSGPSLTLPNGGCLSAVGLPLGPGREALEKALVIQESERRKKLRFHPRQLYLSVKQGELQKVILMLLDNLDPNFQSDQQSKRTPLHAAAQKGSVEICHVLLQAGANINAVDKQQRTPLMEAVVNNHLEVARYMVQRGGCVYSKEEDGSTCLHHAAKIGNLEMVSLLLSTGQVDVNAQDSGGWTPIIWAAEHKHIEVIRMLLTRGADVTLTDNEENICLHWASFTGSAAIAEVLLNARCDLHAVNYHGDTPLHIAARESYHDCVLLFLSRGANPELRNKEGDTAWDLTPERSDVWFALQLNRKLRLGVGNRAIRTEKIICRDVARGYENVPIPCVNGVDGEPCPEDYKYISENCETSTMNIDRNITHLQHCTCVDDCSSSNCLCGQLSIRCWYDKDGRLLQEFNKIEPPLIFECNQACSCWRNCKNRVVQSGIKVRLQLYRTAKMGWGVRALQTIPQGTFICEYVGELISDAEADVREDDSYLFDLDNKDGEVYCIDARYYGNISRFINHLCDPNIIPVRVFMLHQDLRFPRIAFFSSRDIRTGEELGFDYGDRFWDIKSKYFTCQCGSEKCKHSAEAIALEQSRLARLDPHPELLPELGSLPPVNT
Method: as §2, §3

DAOY-SLCs = experiment: Cell viability, MTS assay, DAOY-SLCs; assay type: cell-based; conditions: 5 μM, after 48 h
Method: as §1

DNMT1 = DNMT1 (Homo sapiens, UniProt P26358); experiment: Methyltransferase panel: DNMT1; assay type: biochemical; conditions: substrate Poly dI-dC
Method: as §2, §3

Chain of DOT1L (Q8TEK3 whole entry, species assumed): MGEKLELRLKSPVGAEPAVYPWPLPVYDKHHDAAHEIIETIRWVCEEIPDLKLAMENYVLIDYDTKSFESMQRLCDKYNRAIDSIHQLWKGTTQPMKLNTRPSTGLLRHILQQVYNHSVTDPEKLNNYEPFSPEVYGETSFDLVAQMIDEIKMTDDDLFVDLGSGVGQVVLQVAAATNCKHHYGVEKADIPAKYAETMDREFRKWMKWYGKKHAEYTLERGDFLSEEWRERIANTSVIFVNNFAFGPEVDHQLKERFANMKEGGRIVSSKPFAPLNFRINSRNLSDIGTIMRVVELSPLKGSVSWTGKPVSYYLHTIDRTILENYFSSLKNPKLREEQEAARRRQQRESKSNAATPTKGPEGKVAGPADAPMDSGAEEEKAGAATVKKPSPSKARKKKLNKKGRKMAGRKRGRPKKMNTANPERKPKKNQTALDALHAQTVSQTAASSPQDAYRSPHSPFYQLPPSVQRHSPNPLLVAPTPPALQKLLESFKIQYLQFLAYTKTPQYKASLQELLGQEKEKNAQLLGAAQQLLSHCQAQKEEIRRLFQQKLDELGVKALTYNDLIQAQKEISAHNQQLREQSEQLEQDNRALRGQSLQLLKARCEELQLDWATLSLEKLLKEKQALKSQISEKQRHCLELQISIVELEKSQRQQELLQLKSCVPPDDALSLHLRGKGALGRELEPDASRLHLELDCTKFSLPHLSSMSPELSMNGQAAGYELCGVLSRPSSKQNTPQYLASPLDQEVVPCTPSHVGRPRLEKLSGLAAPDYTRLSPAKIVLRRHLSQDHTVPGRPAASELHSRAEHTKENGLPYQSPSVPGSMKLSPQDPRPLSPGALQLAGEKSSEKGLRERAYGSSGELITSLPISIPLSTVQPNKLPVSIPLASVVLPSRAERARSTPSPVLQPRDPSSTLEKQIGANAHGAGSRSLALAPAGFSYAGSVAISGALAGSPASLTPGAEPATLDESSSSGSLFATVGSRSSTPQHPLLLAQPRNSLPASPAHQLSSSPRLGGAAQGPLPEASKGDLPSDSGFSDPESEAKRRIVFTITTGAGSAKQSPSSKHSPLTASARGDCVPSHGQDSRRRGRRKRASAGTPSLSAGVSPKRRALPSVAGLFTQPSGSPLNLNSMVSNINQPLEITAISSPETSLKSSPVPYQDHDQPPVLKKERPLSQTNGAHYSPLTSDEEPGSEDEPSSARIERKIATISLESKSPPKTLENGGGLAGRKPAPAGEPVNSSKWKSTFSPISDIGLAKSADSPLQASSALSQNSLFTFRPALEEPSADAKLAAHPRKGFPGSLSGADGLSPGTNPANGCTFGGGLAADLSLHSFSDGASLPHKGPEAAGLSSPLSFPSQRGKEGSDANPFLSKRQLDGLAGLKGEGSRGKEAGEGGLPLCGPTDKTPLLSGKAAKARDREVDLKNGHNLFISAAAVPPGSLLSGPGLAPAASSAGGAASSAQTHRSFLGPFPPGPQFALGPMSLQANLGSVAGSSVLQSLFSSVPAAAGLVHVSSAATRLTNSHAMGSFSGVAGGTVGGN
Chain of DNMT1 (P26358 whole entry, species assumed): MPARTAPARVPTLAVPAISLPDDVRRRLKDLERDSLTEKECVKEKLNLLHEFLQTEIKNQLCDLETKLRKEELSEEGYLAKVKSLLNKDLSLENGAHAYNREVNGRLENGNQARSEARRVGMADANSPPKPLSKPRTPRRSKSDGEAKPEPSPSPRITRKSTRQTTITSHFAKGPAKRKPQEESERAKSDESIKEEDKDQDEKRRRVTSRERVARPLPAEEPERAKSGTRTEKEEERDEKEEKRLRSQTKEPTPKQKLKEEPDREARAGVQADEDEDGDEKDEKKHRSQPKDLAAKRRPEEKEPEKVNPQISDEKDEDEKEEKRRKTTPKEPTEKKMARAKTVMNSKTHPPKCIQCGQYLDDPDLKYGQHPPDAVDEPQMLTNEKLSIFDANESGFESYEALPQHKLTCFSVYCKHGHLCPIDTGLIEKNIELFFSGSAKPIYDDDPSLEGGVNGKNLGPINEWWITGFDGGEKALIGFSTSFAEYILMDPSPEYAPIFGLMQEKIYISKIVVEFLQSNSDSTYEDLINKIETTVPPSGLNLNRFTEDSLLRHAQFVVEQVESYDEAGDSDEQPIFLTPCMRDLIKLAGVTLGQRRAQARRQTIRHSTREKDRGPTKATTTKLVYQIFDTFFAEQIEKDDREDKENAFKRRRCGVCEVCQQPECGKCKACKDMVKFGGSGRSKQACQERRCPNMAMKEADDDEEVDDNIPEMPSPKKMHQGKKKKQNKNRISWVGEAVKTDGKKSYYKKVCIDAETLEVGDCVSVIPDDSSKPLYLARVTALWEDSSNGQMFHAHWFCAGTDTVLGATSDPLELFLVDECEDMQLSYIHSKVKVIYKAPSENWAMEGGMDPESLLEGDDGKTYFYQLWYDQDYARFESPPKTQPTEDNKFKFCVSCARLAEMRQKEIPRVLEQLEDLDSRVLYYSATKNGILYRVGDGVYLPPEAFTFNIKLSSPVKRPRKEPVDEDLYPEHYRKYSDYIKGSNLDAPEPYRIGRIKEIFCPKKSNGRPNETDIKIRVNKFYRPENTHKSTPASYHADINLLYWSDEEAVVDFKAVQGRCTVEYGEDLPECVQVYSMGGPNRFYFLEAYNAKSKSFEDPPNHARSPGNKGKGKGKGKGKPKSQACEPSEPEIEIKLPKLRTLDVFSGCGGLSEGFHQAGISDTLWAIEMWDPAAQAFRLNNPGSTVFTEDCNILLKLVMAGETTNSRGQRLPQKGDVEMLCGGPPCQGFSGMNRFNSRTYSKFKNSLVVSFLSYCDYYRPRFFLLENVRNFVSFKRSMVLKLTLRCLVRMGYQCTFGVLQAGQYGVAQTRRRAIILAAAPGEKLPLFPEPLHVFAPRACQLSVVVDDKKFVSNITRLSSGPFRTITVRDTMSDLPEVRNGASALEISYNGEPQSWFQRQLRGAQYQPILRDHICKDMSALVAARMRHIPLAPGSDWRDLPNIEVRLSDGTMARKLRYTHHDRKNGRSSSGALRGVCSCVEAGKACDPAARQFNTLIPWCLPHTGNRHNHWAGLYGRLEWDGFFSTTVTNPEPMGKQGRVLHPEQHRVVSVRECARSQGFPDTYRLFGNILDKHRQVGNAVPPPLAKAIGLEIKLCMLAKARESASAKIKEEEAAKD

Which “H3K27me3 and PCNA protein levels” value (mMB-SLCs; mMB-SLCs, 5 μM) does the source give for `Cc1cc(C)c(CNC(=O)c2cnn(-c3ccccc3)c2C)c(=O)[nH]1` [MC3629, N-((4,6-dimethyl-2-oxo-1,2-dihydropyridin-3-yl)methyl)-5-methyl-1-phenyl-1H-pyrazole-4-carboxamide] here?
The value was “significantly impaired”.

And the “apoptosis, level of cleaved caspase 3” value (mMB-SLCs; mMB-SLCs, 5 μM)?
The value was “induced apoptosis”.

And the “lower significant dosage to decrease the H3K27me3 level” value (mMB-SLCs; tested at 0.5, 5, 25 μM)?
Its value is 5 µM.

And the inhibition at 200 µM (DOT1L)?
Its inhibition at 200 µM is 3%.

What about the “H3K27me3 levels in brain” value ([1]; 20 μMol/Kg intra-peritoneal) of the same molecule?
Its value is “reduced levels”.

What about the “H3K27me3 levels in cerebellum” value ([1]; 20 μMol/Kg intra-peritoneal, twice/week) of the same molecule?
Its value is “significant reduction”.

And the “ability to cross the BBB in vivo” value ([1]; inferred from reduced H3K27me3 in cerebellum and brain, 20 μMol/Kg i.p.)?
Its value is “crosses the BBB”.

What about the inhibition at 200 µM (G9a) of the same molecule?
Its inhibition at 200 µM is 5.1%.

And the cell viability (DAOY-SLCs)?
The cell viability was “impaired cell viability”.

What about the inhibition at 200 µM (DNMT1) of the same molecule?
The inhibition at 200 µM was 0%.

Source: paper PMC5620277, “The histone methyltransferase EZH2 as a druggable target in SHH medulloblastoma cancer stem cells” (Oncotarget, 2017)
